Assay [1] relates to Male Sprague-Dawley derived Rats. The assay can be described thus: Prepulse inhibition of the acoustic startle reflex (PPI), d-Amphetamine disrupted. In kind it is in vivo, rat. The settings on record: for reversal of d-amphetamine induced disruption of PPI: i.p., 30 mins prior to test, hydrochloride. The source says: (§1) Prepulse inhibition of the acoustic startle reflex (PPI) is an operational measure of sensorimotor gating that can be measured across many species. Deficits in PPI have been reported in patients with schizophrenia, leading to its use as a preclinical model of the disease. In rats, PPI is decreased in a manner homologous to that seen in schizophrenia following administration of certain psychotomimetic drugs (e.g. MK801; amphetamine). In our study we utilized MK801, a non-competitive NMDA antagonist and d-Amphetamine, a non-selective dopamine agonist.
(§2) Animals: Male Sprague-Dawley derived Rats (SD) weighing 200-250 g were group housed in standard bedding cages, allowed access to food and water ad libitum, and maintained on a 12-hour light dark cycle. All behavioral testing was performed during the light cycle. All studies were previously approved by the Institutional Animal Care and Use Committee, and performed in accordance to the Guide for the Care and Use of Laboratory Animals as adopted and promulgated by the National Institutes of Health.
(§3) Test Compounds: The oxytocin agonist cpd A was dissolved in a 1% Tween-80/1% DMSO/saline vehicle. MK801 (Sigma, St. Louis, Mo.) was dissolved in 2% Tween-80/saline. d-Amphetamine (Sigma, St. Louis, Mo.) was dissolved in saline.
(§4) Each testing chamber (SR-LAB system, San Diego Instruments) consisted of a Plexiglas cylinder (8.8 cm in diameter) mounted on a frame and held in position by four metal pins to a base unit. Movement of the rat within the cylinder was detected by a piezoelectric accelerometer attached below the frame. […] Presentation of acoustic pulse and prepulse stimuli were controlled by the SR-LAB software and interface system, which also digitized, rectified and recorded the responses from the accelerometer. Mean startle amplitude was determined by averaging 100, 1 ms readings taken from the beginning of the pulse stimulus onset. For calibration purposes, sound levels were measured with a Quest sound level meter, scale “A”, with the microphone placed inside the Plexiglas cylinder. […]

The subject of the next assay is Male Swiss-Webster mice. Nature of the assay: Four-Plate Test (FPT), punished crossings. In kind it is in vivo, mouse. The settings on record: for reversal of the anxiolytic-like effect of cpd A / blockade of the anxiolytic-like effect of cpd A (in words): co-administered with cpd A 10 mg/kg; for blockade of the anxiolytic-like effect of cpd A (in words): cpd B 10-30 mg/kg. On the procedure: Animals: Male Swiss-Webster mice weighing 18-24 g were housed in groups of 15 in hanging wire cages, allowed access to food and water ad libitum, and maintained on a 12-hour light dark cycle. All behavioral testing was performed during the light cycle. All studies were previously approved by the Institutional Animal Care and Use Committee, and performed in accordance to the Guide for the Care and Use of Laboratory Animals as adopted and promulgated by the National Institutes of Health.
Test Compounds: Oxytocin (American Peptide Company, Sunnyvale, Calif.) was dissolved in a saline vehicle. The oxytocin agonist 4,-(3,5-Dihydroxy-benzyl)-piperazine-1-carboxylic acid 2-methyl-4-(3-methyl-4,10-dihydro-3H-2,3,4,9-tetra-aza-benzo[f]azulene-9-carbonyl)-benzylamide (hereinafter “cpd A”) and oxytocin antagonist 10-[(2-Methyl-2′-trifluoromethyl-[1,1′-biphenyl]-4-yl)carbonyl]-10,11-dihydro-5H-pyrrolo[2,1-c][1,4]benzodiazepine-3-carboxylic acid-bis-(2-hydroxy-ethyl)-amide (hereinafter “cpd B”) (Patent W/O 02/083680) were prepared and dissolved in a 1% Tween-80/1% DMSO/saline vehicle.
ICV injections: Mice were lightly anesthetized with halothane. Oxytocin was administered into either the left or right ventricle by visual location. A 26 gauge Hamilton syringe with 3 mm needle was used for injections and the injection site was visualized by locating the middle of the invisible line that runs diagonally from the left eye to the right ear. Test compounds were injected in a 2 μl total volume.
Four-Plate Test (FPT:) The four-plate apparatus consists of a Plexiglas chamber (18×25×16 cm) floored with four identical rectangular metal plates (8×11 cm), which are separated from one another by a gap of 4 mm and connected to a computerized device that can deliver electric shocks (0.8 mA, 0.5 sec) (Aron et al. Evaluation of a rapid technique for detecting minor tranquilizers, Neuropharmacology 10: 459-69 (1971)). In this test, mice are placed into the chamber and following a brief (18 seconds) habituation period, the animal's innate motivation to explore the novel environment is suppressed by the delivery of a mild foot shock every time the animal crosses any of the boundaries (gaps) while moving from one plate to another (referred to as a ‘punished crossing’). Following any punished crossing, there is a 3-second time out where the mouse may cross the electric plates without receiving another shock. An experimenter blind to the dosing conditions administers shocks, and a computer records the total number of punished crossings an animal makes during a 1-minute testing period. […] Pharmacol Biochem Behav 65: 339-44 (2000)). In all experiments, the testing procedure consisted of either a single injection or two injections followed by a test session 30 minutes later.
Statistical Analysis: One-way analysis of variance (ANOVA) was performed to determine effects of test compound treatments, followed by Least Significant Difference Tests for a post hoc analysis. All figures are shown with average ±SEM.

The test system of assay [2] is Male Sprague-Dawley derived Rats. Nature of the assay: Prepulse inhibition of the acoustic startle reflex (PPI), MK801 disrupted. In kind it is in vivo, rat.
Description: as §1, §2, §3, §4
Startle amplitude was defined as the mean value of pulse alone trials. To evaluate the effect of drug treatment on startle response, data from the pulse alone trials was analyzed using one-factor ANOVA with repeated measures (one-way randomized block design), followed by a least significant difference (LSD) post-hoc test (comparison was made to vehicle/disrupting agent control). […] Although data for gating at three different prepulse intensities was generated, an averaged gating score across all prepulse intensities was calculated and this was analyzed by one factor ANOVA with repeated measures (one-way randomized block design). […]

This is an account of results in patent US20070117794A1, “Methods of treatment using oxytocin receptor agonists” (Wyeth, priority 2005, published 2007).

“Also recorded” adds a separate entry of the source.

On to `C[C@H](N)Cc1ccccc1` [d-Amphetamine], for which the “disruption of PPI” value in assay [1] (d-Amphetamine 4 mg/kg s.c., 10 min prior to test, 5 dB, 10 dB & 15 dB prepulse) was “produced significant disruption across all three prepulse intensities”.
`Cc1cc(C(=O)N2Cc3ccc(C(=O)N(CCO)CCO)n3Cc3ccccc32)ccc1-c1ccccc1C(F)(F)F` [cpd B, 10-[(2-Methyl-2′-trifluoromethyl-[1,1′-biphenyl]-4-yl)carbonyl]-10,11-dihydro-5H-pyrrolo[2,1-c][1,4]benzodiazepine-3-carboxylic acid-bis-(2-hydroxy-ethyl)-amide]: the “reversal of the anxiolytic-like effect of cpd A” value with Male Swiss-Webster mice (cpd B 10 mg/kg, ip) was found to be 63%; in the assay with Male Swiss-Webster mice (cpd B 30 mg/kg, ip, p<0.05), 100%. Moreover, the “blockade of the anxiolytic-like effect of cpd A (in words)” value was “blocked the anxiolytic-like effect of cpd A in a dose-dependent manner” in the assay with Male Swiss-Webster mice (ip) and “dose-dependently blocks the anxiolytic-like effect of Cpd A” with Male Swiss-Webster mice (ip, listed as Cpd B). The “punished crossings (effect in words)” value in the assay with Male Swiss-Webster mice (cpd B administered alone) is listed as “no effect on punished crossings”.
For `C[C@]12N[C@H](Cc3ccccc31)c1ccccc12` [MK801], in assay [2] (MK801 0.1 mg/kg s.c., 10 min prior to test, 5 dB, 10 dB & 15 dB prepulse, 0.1 mg/kg), the “disruption of PPI” value was “produced significant disruption in PPI across three prepulse intensities; also recorded: produced significant disruption across all three prepulse intensities”. Moreover, the startle alone entry in assay [2] (MK801 0.1 mg/kg s.c., 10 min prior to test, p >0.05) is “no effect on startle alone”.
With `Cc1cc(C(=O)N2Cc3cnn(C)c3Nc3ccccc32)ccc1CNC(=O)N1CCN(Cc2cc(O)cc(O)c2)CC1.Cl` [Cpd A (HCl salt), 4,-(3,5-Dihydroxy-benzyl)-piperazine-1-carboxylic acid 2-methyl-4-(3-methyl-4,10-dihydro-3H -2,3,4,9-tetra-aza-benzo[f]azulene-9-carbonyl)-benzylamide hydrochloride], the “reversal of d-amphetamine induced disruption of PPI” value was “reversed d-amphetamine induced disruption at 5 dB and 10 dB; also recorded: reversed d-amphetamine—induced deficit at 5 dB and 10 dB” in assay [1] (Cpd A (HCl salt) 10 mg/kg, 10 mg/kg); “reversed the d-amphetamine induced disruption at 10 dB” in assay [1] (Cpd A (HCl salt) 30 mg/kg, 30 mg/kg).
Turning to `Cc1cc(C(=O)N2Cc3cnn(C)c3Nc3ccccc32)ccc1CNC(=O)N1CCN(Cc2cc(O)cc(O)c2)CC1` [cpd A, 4,-(3,5-Dihydroxy-benzyl)-piperazine-1-carboxylic acid 2-methyl-4-(3-methyl-4,10-dihydro-3H-2,3,4,9-tetra-aza-benzo[f]azulene-9-carbonyl)-benzylamide], the “increase in punished crossings from vehicle” value in the assay on Male Swiss-Webster mice (cpd A 10 mg/kg, ip, 30 minutes prior to testing, p<0.05) stood at 32%; in the assay with Male Swiss-Webster mice (cpd A 30 mg/kg, ip, 30 minutes prior to testing, p<0.05), 25%. For the same molecule, the “punished crossings (effect in words)” value was “increases punished crossings; also recorded: increased punished crossings compared to vehicle” in the assay with Male Swiss-Webster mice (cpd A 10 mg/kg, ip, antagonist study (FIG. 3), p<0.05, 10 mg/kg) and “increases the number of punished crossings; also recorded: significant overall effect on punished crossings” with Male Swiss-Webster mice (cpd A 3-100 mg/kg, ip, 30 minutes prior to testing). Further, the “reversal of MK801 induced deficits in PPI” value in assay [2] (Cpd A 30 mg/kg i.p. (highest dose of 3-30 mg/kg), 30 mins prior to test) is “reversed MK801 induced deficits in PPI at 10 dB & 15 dB levels; also recorded: reversed MK801 induced disruption at 10 dB and 15 dB”.
